Assay results taken from ChEMBL document CHEMBL4130387, “Design, synthesis and in vivo study of novel pyrrolidine-based 11β-HSD1 inhibitors for age-related cognitive dysfunction” (Eur J Med Chem, 2017).
Active and inactive are the calls of the source. No cut-off for these calls is given here.

Assays:
[1] = target: T1, 11-beta-hydroxysteroid dehydrogenase type 2 (Homo sapiens) (UniProt P80365); experiment: Inhibition of human full-length 11beta-HSD2 expressed in HEK293 cells at 10 uM using cortisol as substrate after 2 hrs by LC-MS analysis relative to control; format: cell-based
T1 sequence (whole entry): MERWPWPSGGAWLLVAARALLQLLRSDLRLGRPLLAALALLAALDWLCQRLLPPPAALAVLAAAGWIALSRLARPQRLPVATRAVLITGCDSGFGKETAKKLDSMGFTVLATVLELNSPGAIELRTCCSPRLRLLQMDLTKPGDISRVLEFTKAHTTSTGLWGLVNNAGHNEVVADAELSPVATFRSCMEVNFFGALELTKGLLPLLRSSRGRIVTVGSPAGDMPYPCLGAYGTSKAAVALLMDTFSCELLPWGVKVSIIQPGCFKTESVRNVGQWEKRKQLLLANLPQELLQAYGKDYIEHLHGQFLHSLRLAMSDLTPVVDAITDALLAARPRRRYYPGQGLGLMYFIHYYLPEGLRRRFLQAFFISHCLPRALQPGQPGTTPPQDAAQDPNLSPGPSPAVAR

[2] = target: 11-beta-hydroxysteroid dehydrogenase 1 (Homo sapiens, UniProt P28845); experiment: Inhibition of 11beta-HSD1 in human liver microsomes using [3H]cortisone as substrate preincubated for 15 mins followed by substrate addition and measured after 30 mins by scintillation proximity assay
Chain of 11-beta-hydroxysteroid dehydrogenase 1 (Homo sapiens, UniProt P28845) (P28845 whole entry): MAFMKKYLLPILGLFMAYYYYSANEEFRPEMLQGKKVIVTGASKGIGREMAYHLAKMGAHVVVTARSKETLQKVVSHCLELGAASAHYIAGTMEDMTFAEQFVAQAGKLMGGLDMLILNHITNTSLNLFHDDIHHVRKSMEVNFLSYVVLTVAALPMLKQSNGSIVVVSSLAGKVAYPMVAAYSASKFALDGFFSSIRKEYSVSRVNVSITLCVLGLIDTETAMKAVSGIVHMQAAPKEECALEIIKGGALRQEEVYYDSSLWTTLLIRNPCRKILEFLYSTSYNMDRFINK

[3] = Effective permeability by PAMPA; format: ADME; details: read-out: Peff
[4] = target: T2, 11-beta-hydroxysteroid dehydrogenase type 2 (Homo sapiens, UniProt P80365); experiment: Inhibition of human full-length 11beta-HSD2 expressed in HEK293 cells using cortisol as substrate after 2 hrs by LC-MS analysis; format: cell-based
T2 sequence (P80365 whole entry): T1 sequence (whole entry)

[5] = Stability in human liver microsomes at 10 uM after 30 mins by LC-MS/MS analysis; format: ADME, microsome; details: read-out: Stability
Mus musculus [6] = experiment: Downregulation of iNOS mRNA levels in SAMP8 mouse at 21 mg/kg, po for 4 days by qRT-PCR analysis; format: functional, organism-based
Mus musculus [7] = experiment: Dose normalized AUC (infinity) in CD1 mouse at 21 mg/kg, po by UPLC-MS/MS analysis; format: ADME, organism-based; details: in vivo
[8] = Elimination rate constant in CD1 mouse at 21 mg/kg, po by UPLC-MS/MS analysis; format: ADME, organism-based; details: in vivo
[9] = Ratio of plasma concentration in CD1 mouse at 21 mg/kg, po after 0.5 hrs by UPLC-MS/MS analysis to IC50 for inhibition of 11beta-HSD1 in human liver microsomes; format: organism-based; details: in vivo
Mus musculus [10] = experiment: Upregulation of IDE protein levels in SAMP8 mouse brain at 21 mg/kg, po for 4 days by Western blot analysis; format: functional, organism-based
[11] = Plasma concentration in CD1 mouse at 21 mg/kg, po after 3 hrs by UPLC-MS/MS analysis; format: ADME, organism-based
[12] = Apparent half-life of the terminal disposition phase in CD1 mouse at 21 mg/kg, po by UPLC-MS/MS analysis; format: ADME, organism-based; details: in vivo, read-out: t1/2 lambda z (converted)
[13] = Apparent volume of distribution during terminal phase in CD1 mouse at 21 mg/kg, po by UPLC-MS/MS analysis; format: ADME, organism-based; details: in vivo, read-out: Vz/F
Mus musculus [14] = experiment: Extrapolated AUC in CD1 mouse at 21 mg/kg, po by UPLC-MS/MS analysis; format: ADME, organism-based; details: in vivo
Mus musculus [15] = experiment: Cognitive enhancing effect in SAMP8 mouse assessed as prevention of short-term memory deficits by measuring time spent on exploring novel objects at 21 mg/kg, po for 4 days and measured during 10 mins retention trial after 24 hrs by novel object recognition test; format: functional, organism-based
[16] = AUClast in CD1 mouse at 21 mg/kg, po by UPLC-MS/MS analysis; format: ADME, organism-based; parameters: dose 21 mg/kg, time 0 - last, route oral; details: in vivo
[17] = Drug uptake in CD1 mouse brain at 21 mg/kg, po after 3 hrs by UPLC-MS/MS analysis; format: ADME, organism-based; details: read-out: Drug uptake
Mus musculus [18] = experiment: Downregulation of APP beta-secretase C-terminal fragment protein levels in SAMP8 mouse brain at 21 mg/kg, po for 4 days by Western blot analysis; format: functional, organism-based
Mus musculus [19] = experiment: Effect on pre-APP mRNA levels in SAMP8 mouse brain at 21 mg/kg, po for 4 days by qRT-PCR analysis; format: functional, organism-based
Mus musculus [20] = experiment: Cognitive enhancing effect in SAMP8 mouse assessed as prevention of short-term memory deficits by measuring time spent on exploring novel objects at 21 mg/kg, po for 4 days and measured during 10 mins retention trial after 2 hrs by novel object recognition test; format: functional, organism-based
[21] = Tmax in CD1 mouse at 21 mg/kg, po by UPLC-MS/MS analysis; format: ADME, organism-based; details: in vivo
[22] = Cmax in CD1 mouse at 21 mg/kg, po by UPLC-MS/MS analysis; format: ADME, organism-based; parameters: dose 21 mg/kg, route oral; details: in vivo
Mus musculus [23] = experiment: Effect on pre-APP protein levels in SAMP8 mouse brain at 21 mg/kg, po for 4 days by Western blot analysis; format: functional, organism-based
[24] = Plasma concentration in CD1 mouse at 21 mg/kg, po after 0.5 hrs by UPLC-MS/MS analysis; format: ADME, organism-based
[25] = target: 11-beta-hydroxysteroid dehydrogenase 1 (Mus musculus, UniProt P50172); experiment: Inhibition of 11beta-HSD1 in CD1 mouse liver microsomes using cortisone as substrate preincubated for 15 mins followed by substrate addition and measured after 30 mins by LC-MS analysis
Chain of 11-beta-hydroxysteroid dehydrogenase 1 (Mus musculus, UniProt P50172) (P50172 whole entry): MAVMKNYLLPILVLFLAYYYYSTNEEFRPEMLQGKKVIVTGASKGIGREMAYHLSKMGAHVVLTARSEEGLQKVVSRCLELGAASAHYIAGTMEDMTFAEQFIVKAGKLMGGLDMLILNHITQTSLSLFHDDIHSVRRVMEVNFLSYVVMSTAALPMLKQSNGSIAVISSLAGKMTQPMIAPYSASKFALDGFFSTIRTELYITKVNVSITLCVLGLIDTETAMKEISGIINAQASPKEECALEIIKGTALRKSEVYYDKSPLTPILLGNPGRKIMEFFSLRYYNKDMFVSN

Mus musculus [26] = experiment: Dose normalized Cmax in CD1 mouse at 21 mg/kg, po by UPLC-MS/MS analysis; format: ADME, organism-based; details: in vivo
Mus musculus [27] = experiment: Effect on Bace1 mRNA levels in SAMP8 mouse brain at 21 mg/kg, po for 4 days by qRT-PCR analysis; format: functional, organism-based
[28] = Stability in mouse liver microsomes at 10 uM after 30 mins by LC-MS/MS analysis; format: ADME, microsome; details: read-out: Stability
[29] = Apparent oral clearance in CD1 mouse at 21 mg/kg, po by UPLC-MS/MS analysis; format: ADME, organism-based; details: in vivo
Mus musculus [30] = experiment: Downregulation of IL-6 mRNA levels in SAMP8 mouse at 21 mg/kg, po for 4 days by qRT-PCR analysis; format: functional, organism-based
Mus musculus [31] = experiment: Effect on ADAM10 mRNA levels in SAMP8 mouse brain at 21 mg/kg, po for 4 days by qRT-PCR analysis; format: functional, organism-based
[32] = Plasma concentration in CD1 mouse at 21 mg/kg, po after 1 hr by UPLC-MS/MS analysis; format: ADME, organism-based
[33] = Plasma concentration in CD1 mouse at 21 mg/kg, po after 5 hrs by UPLC-MS/MS analysis; format: ADME, organism-based
Mus musculus [34] = experiment: Upregulation of PSD95 mRNA levels in SAMP8 mouse at 21 mg/kg, po for 4 days by qRT-PCR analysis; format: functional, organism-based
[35] = AUC (infinity) in CD1 mouse at 21 mg/kg, po by UPLC-MS/MS analysis; format: ADME, organism-based; parameters: dose 21 mg/kg, time infinity, route oral; details: in vivo

## O=C(C1CCCCC1)N1CC23CC=CCC2(CC=CC3)C1 (configuration not stated)
[1]
  inhibition: 100%
[2]
  IC50: 40 nM

## O=C(C1CCCCC1)N1CC2C3CCC(C3)C2C1 (configuration not stated)
[3]
  Papp: 5.2 ×10⁻⁶ cm/s
[2]
  IC50: 90 nM
[4]
  IC50: < 100 nM
[5]
  remaining at 0.5 h, 10 µM: 37%

## O=C(C1CCCCC1)N1CC2C3C=CC(C4CC34)C2C1 (configuration not stated)
[2]
  IC50: 20 nM
[4]
  IC50: 1000 to 10000 nM
[5]
  remaining at 0.5 h, 10 µM: 27%

## O=C(C1CCCCC1)N1CC2C3C=CC(CC3)C2C1 (configuration not stated)
[5]
  remaining at 0.5 h, 10 µM: 44%

## O=C(C1CCCCC1)N1CC2C3CCC(C4CC34)C2C1 (configuration not stated)
Mus musculus [6]
  Activity: Active
Mus musculus [7]
  AUC/dose: 1.906 kg·ng·h/mL/mg
[8]
  k el: 0.00025 s⁻¹
[9]
  Ratio: 5
Mus musculus [10]
  Activity: Active
[11]
  concentration at 3 h: 2.12 ng/mL
[3]
  Papp: > 30 ×10⁻⁶ cm/s
[12]
  half-life: 46.3 min
[13]
  Vd/F: 583 L/kg
Mus musculus [14]
  %AUCextra: 0.787%
Mus musculus [15]
  Activity: Active
[2]
  IC50: 30 nM
[16]
  AUC(0-t): 39.7 ng·h/mL
[17]
  concentration at 3 h: 1.45 ng/mL
Mus musculus [18]
  Activity: Active
Mus musculus [19]
  Activity: inactive
Mus musculus [20]
  Activity: Active
[21]
  Tmax: 30 min
[22]
  Cmax: 44.6 ng/mL
Mus musculus [23]
  Activity: inactive
[24]
  concentration at 0.5 h: 44.6 ng/mL
[25]
  IC50: 80 nM
Mus musculus [26]
  Cmax/dose: 2.123 kg·ng/mL/mg
Mus musculus [27]
  Activity: inactive
[4]
  IC50: < 100 nM
[28]
  remaining at 0.5 h, 10 µM: 93%
[29]
  CL/F: 525 L/h/kg
Mus musculus [30]
  Activity: Active
Mus musculus [31]
  Activity: inactive
[32]
  concentration at 1 h: 10.3 ng/mL
[33]
  concentration at 5 h: 0.28 ng/mL
Mus musculus [34]
  Activity: Active
[5]
  remaining at 0.5 h, 10 µM: 94%
[35]
  AUC(0-inf): 40 ng·h/mL

## O=C(C1CCCCC1)N1CC2C3C=CC(C3)C2C1 (configuration not stated)
[2]
  IC50: 20 nM
[4]
  IC50: < 100 nM
[5]
  remaining at 0.5 h, 10 µM: 60%

## O=C(C1CCCCC1)N1CC2C3CCC(CC3)C2C1 (configuration not stated)
[2]
  IC50: 20 nM
[4]
  IC50: 100 to 1000 nM
[5]
  remaining at 0.5 h, 10 µM: 17%

## CCN1CCC[C@@H]1C(=O)NC1C2CC3CC(C2)CC1C3 (some centres not stated)
[1]
  inhibition: 88%
[5]
  remaining at 0.5 h, 10 µM: 79%
